The values that follow come from BindingDB's records for doi:10.1021/acs.jmedchem.8b00605 (Leiden University, 2018).

The assay addresses T1, C-C chemokine receptor type 1 (Homo sapiens, UniProt P32246).
T1 sequence (P32246 whole entry): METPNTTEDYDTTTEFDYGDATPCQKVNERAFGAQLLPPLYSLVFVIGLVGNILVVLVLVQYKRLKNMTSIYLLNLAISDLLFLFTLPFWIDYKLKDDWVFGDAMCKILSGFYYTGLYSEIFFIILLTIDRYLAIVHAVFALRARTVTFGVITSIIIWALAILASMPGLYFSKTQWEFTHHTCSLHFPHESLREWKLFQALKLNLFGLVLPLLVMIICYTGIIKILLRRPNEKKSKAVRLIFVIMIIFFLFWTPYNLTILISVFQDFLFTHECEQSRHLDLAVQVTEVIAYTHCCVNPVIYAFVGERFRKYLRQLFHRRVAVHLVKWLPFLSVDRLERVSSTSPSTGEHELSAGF
Nature of the assay: Displacement of [3H]-CCR2-RA-[R] from human TEV protease site linked CCR1 expressed in human U20S cell membranes co-expressing Gal4-VP16 transcription factor after 120 mins by scintillation spectrometry. On the technique in general: In a radioligand displacement assay an active substance lowers the binding of a labelled ligand.

Usually Ki stands for a measure of affinity in units of concentration, obtained from inhibition or displacement. A low value points to tighter binding. As to `CC(=O)C1=C(O)C(=O)N(c2ccc(Br)cc2F)C1C1CCCCC1` (stereo unspecified), affinity was put at a Ki of 10 nM.
